Measured values taken from publication PMC6304572, “Simultaneous Evaluation of the Influence of Panax ginseng on the Pharmacokinetics of Three Diester Alkaloids after Oral Administration of Aconiti Lateralis Radix in Rats Using UHPLC/QQQ-MS/MS” (Evidence-based Complementary and Alternative Medicine : eCAM, 2018).
Read-outs that look alike come from different tables or passages of the source.

What was measured:
[1] = Pharmacokinetics of three diester alkaloids in rat plasma after oral Aconiti Lateralis Radix extract, with or without 7-day P. ginseng pretreatment; assay type: in vivo, Sprague-Dawley rats; settings: for CL/F / Cmax / Tmax / Vd/F / half-life: Sprague-Dawley, rat, in vivo, po, 1 g/kg; for CL/F / Cmax / Tmax / Vd/F / half-life / AUC(0-t) / AUC(0-∞): oral Aconiti Lateralis Radix extract 1 g/kg on 8th day; for CL/F: read-out: CLz/F (converted); for Cmax: read-out: Cmax; for Tmax: read-out: Tmax; for Vd/F: read-out: Vz/F; for half-life: read-out: t1/2z (converted)
Experimental: Rats were randomly divided into 4 groups: control group, P. ginseng (low, middle, and high) group. 7 days of oral administration of P. ginseng extract was administered at a dosage of 0.1, 1, 10 g/kg for P. ginseng group (low, middle, and high), respectively, once daily. Distilled water was administered at a dosage of 2 ml/kg for control group, simultaneously. On the 8th day, Aconiti Lateralis Radix extracts (1 g/kg) were orally administered to all groups. 0.5 ml plasma samples were collected in 1.5 ml centrifuge tubes (containing heparin sodium) at 10, 30, 60, 90, 120, 240, 480, 720, 1440, and 2880 min. All plasma samples were centrifuged for 15 min at 4000g. The supernatant was separated to another 1.5 ml centrifuge tubes and stored at -20°C.
Liquid-liquid extraction (ethyl acetate) and protein precipitation (50% acetonitrile plus 50% methanol) methods were compared to determine the best method to prepare the plasma sample. Liquid-liquid extraction method was chosen, due to reproducibly high recovery rates. The details of the extraction are as follows: 10 μL carbamazepine (IS) was added to 90 μL plasma, spiked with 400 μL ethyl acetate and the mixture vortexed for 15 seconds. After centrifugation at 12,000g for 10 min, the supernatant was transferred to another 1.5 mL centrifuge tube and dried under a stream of nitrogen at 37°C. The residue was redissolved in 100 μL 50% acetonitrile and centrifuged at 12,000g for 10 min and filtered through a 0.22 μm Micropore membrane. A 5 μL volume of supernatant was injected into LC-MS system for analysis.
Xevo TQ-S (Waters, USA) was utilized for the analysis of all biological samples. Chromatographic separation was conducted on Waters ACQUITY UPLC HSS T3 1.8 μm column (2.1 mm × 100 mm). Column temperature was 45°C and the flow rate was 0.5ml/min. Room temperature was 20 ± 2°C. Phase A consisted of water and 0.1% formic acid (v/v), and phase B consisted of acetonitrile (ACN) 0.1% formic acid (v/v). Column separation was performed by gradient elution: 0-0.5 min, 10% B; 1-2 min, 90% B; 4 min, 10% B.
Electrospray ionization (ESI) and positive ion V mode were used to determine the samples. The main parameters for mass spectrum were set as follows: capillary voltage: 3.5 kv; sample cone: 60 v; source offset: 50 v; source temperature: 150°C; desolvation temperature: 350°C; cone gas flow: 150 L/h; desolvation gas flow: 650 L/h; injection volume: 5 μL.
The data was acquired and analyzed by XEVO-QT-S (Waters). The pharmacokinetic parameters were analyzed by DAS pharmacokinetic program (Version 2.0). SAS statistical software was used to determine the difference between each group. All data was presented as mean ± SD, and P<0.05 was considered statistically significant.

[2] = Stability of the three alkaloids in rat plasma QC samples (4°C, room temperature, freeze-thaw); assay type: in vitro ADME; settings: for Freeze-thaw Accuracy: freeze-thaw three times; for Room temperature stability (24 h) Accuracy: room temperature (about 25°C)
Experimental: Plasma from rats without any processing was used to evaluate the detection methods. 0.1, 0.25, 0.5, 1, 2.5, 5, 10 ng/ml were chosen to calculate standards curve. 0.1, 0.4, 4, 8 ng/mL were selected as the QC sample (n = 4) with repeated operations used to calculate accuracy and precision of the detection method. The data was acquired after keeping the samples at either +4°C 24 hours or room temperature (about 25°C) for 24 hours as well as using freeze-thaw methods (three times) to evaluate stability. Recovery of the developed methods was calculated by the following formula: recovery = measured value/ theoretical value × 100%.

[3] = P. ginseng-high (10 g/kg oral, 7 days)
[4] = P. ginseng-low (0.1 g/kg oral, 7 days)
[5] = P. ginseng-middle (1 g/kg oral, 7 days)
[6] = control group (distilled water 7 days)

| Compound | CL/F [1, 3] [mL/min/kg] | Cmax [1, 3] [ng/mL] | Tmax [1, 3] [h] | Vd/F [1, 3] [L/kg] | half-life [1, 3] [h] | CL/F [1, 4] [mL/min/kg] | Cmax [1, 4] [ng/mL] | Tmax [1, 4] [h] | Vd/F [1, 4] [L/kg] | half-life [1, 4] [h] | CL/F [1, 5] [mL/min/kg] | Cmax [1, 5] [ng/mL] | Tmax [1, 5] [h] | Vd/F [1, 5] [L/kg] | half-life [1, 5] [h] | CL/F [1, 6] [mL/min/kg] | Cmax [1, 6] [ng/mL] | Tmax [1, 6] [h] | Vd/F [1, 6] [L/kg] | half-life [1, 6] [h] | also measured |
| --- | --- | --- | --- | --- | --- | --- | --- | --- | --- | --- | --- | --- | --- | --- | --- | --- | --- | --- | --- | --- | --- |
| CCN1C[C@]2(COC)[C@H](O)C[C@H](OC)[C@@]34[C@@H]5C[C@@]6(O)[C@H](OC(=O)c7ccccc7)[C@@H]5[C@@](OC(C)=O)([C@@H]([C@H](OC)[C@H]23)[C@@H]14)[C@@H](O)[C@@H]6OC [Aconitine] | 852 | 11.5 ± 3.49 | 1.33 ± 0.41 | 1550 ± 686 | 26.5 ± 23.3 | 2870 | 5.03 ± 3.02 | 4 ± 3.27 | 2480 ± 945 | 10.1 ± 3.72 | 2830 | 5.79 ± 2.8 | 2.11 ± 2.97 | 1460 ± 190 | 6.14 ± 1.18 | 3760 | 3.88 ± 0.92 | 2.67 ± 2.91 | 3350 ± 1370 | 10.7 ± 4.78 | AUC(0-t) [1, 3]: 162.98 ± 48.50^∗∗ μg/L∗h; AUC(0-∞) [1, 3]: 228.56 ± 100.03^∗∗ μg/L∗h; AUC(0-t) ([1]; P. ginseng-high (10 g/kg oral, 7 days), listed as aconitine): 162.98 ± 48.50 μg/L∗h; AUC(0-t) [1, 4]: 58 ± 13.02 μg/L∗h; AUC(0-∞) [1, 4]: 60.32 ± 12.99 μg/L∗h; AUC(0-t) [1, 5]: 61.05 ± 12.82^∗ μg/L∗h; AUC(0-∞) [1, 5]: 61.49 ± 13.16^∗ μg/L∗h; AUC(0-t) ([1]; P. ginseng-middle (1 g/kg oral, 7 days), listed as aconitine): 61.05 ± 12.82 μg/L∗h; AUC(0-t) [1, 6]: 40.77 ± 9.71 μg/L∗h; AUC(0-∞) [1, 6]: 46.20 ± 9.57 μg/L∗h; 4°C temperature stability (24 h) Accuracy ([2]; QC conc. 0.40 ng/mL): 99.65 ± 2.16%; Freeze-thaw Accuracy ([2]; QC conc. 0.40 ng/mL): 99.71 ± 2.06%; Room temperature stability (24 h) Accuracy ([2]; QC conc. 0.40 ng/mL): 100.49 ± 2.52%; 4°C temperature stability (24 h) Accuracy ([2]; QC conc. 4.00 ng/mL): 98.98 ± 9.99%; Freeze-thaw Accuracy ([2]; QC conc. 4.00 ng/mL): 99.91 ± 6.23%; Room temperature stability (24 h) Accuracy ([2]; QC conc. 4.00 ng/mL): 96.29 ± 3.26%; 4°C temperature stability (24 h) Accuracy ([2]; QC conc. 8.00 ng/mL): 101.57 ± 1.29%; Freeze-thaw Accuracy ([2]; QC conc. 8.00 ng/mL): 100.22 ± 1.87%; Room temperature stability (24 h) Accuracy ([2]; QC conc. 8.00 ng/mL): 97.66 ± 4.54% |
| COC[C@@]12CC[C@H](OC)[C@]34C(C([C@H](OC)[C@H]13)[C@]1(OC(C)=O)[C@H]3[C@@H](OC(=O)c5ccccc5)[C@](O)(C[C@H]34)[C@@H](OC)[C@@H]1O)N(C)C2 [Hypaconitine] | 2320 | 4.87 ± 1.36 | 1.83 ± 1.29 | 2280 ± 954 | 11.7 ± 4.21 | 2380 | 4.02 ± 2.01 | 3.61 ± 3.47 | 2020 ± 819 | 9.7 ± 3.55 | 2360 | 5.85 ± 2.71 | 2.53 ± 3.01 | 1400 ± 272 | 6.97 ± 1.77 | 3400 | 4.63 ± 1.96 | 2.67 ± 2.91 | 3880 ± 1700 | 14.1 ± 5.41 | Change of Cmax versus control ([1]; all P. ginseng groups compared to control): did not change; AUC(0-t) [1, 3]: 71.75 ± 22.2^∗ μg/L∗h; AUC(0-∞) [1, 3]: 77.26 ± 25.15^∗ μg/L∗h; AUC(0-t) ([1]; P. ginseng-high (10 g/kg oral, 7 days), listed as hypaconitine): 71.75 ± 22.2 μg/L∗h; AUC(0-t) [1, 4]: 65.64 ± 13.14 μg/L∗h; AUC(0-∞) [1, 4]: 70.68 ± 8.89^∗ μg/L∗h; AUC(0-t) [1, 5]: 70.71 ± 7.55^∗ μg/L∗h; AUC(0-∞) [1, 5]: 71.49 ± 8.07^∗ μg/L∗h; AUC(0-t) ([1]; P. ginseng-middle (1 g/kg oral, 7 days), listed as hypaconitine): 70.71 ± 7.55 μg/L∗h; AUC(0-t) [1, 6]: 48.12 ± 24.59 μg/L∗h; AUC(0-∞) [1, 6]: 60.16 ± 28.03 μg/L∗h; 4°C temperature stability (24 h) Accuracy ([2]; QC conc. 0.40 ng/mL): 97.44 ± 2.35%; Freeze-thaw Accuracy ([2]; QC conc. 0.40 ng/mL): 99.71 ± 2.06%; Room temperature stability (24 h) Accuracy ([2]; QC conc. 0.40 ng/mL): 100.49 ± 2.52%; 4°C temperature stability (24 h) Accuracy ([2]; QC conc. 4.00 ng/mL): 104.96 ± 5.49%; Freeze-thaw Accuracy ([2]; QC conc. 4.00 ng/mL): 100.26 ± 6.03%; Room temperature stability (24 h) Accuracy ([2]; QC conc. 4.00 ng/mL): 98.72 ± 4.30%; 4°C temperature stability (24 h) Accuracy ([2]; QC conc. 8.00 ng/mL): 101.13 ± 4.82%; Freeze-thaw Accuracy ([2]; QC conc. 8.00 ng/mL): 102.33 ± 3.19%; Room temperature stability (24 h) Accuracy ([2]; QC conc. 8.00 ng/mL): 100.64 ± 3.60% |
